Experimental data: ChEMBL document CHEMBL1154073, “Combining selectivity and affinity predictions using an integrated Support Vector Machine (SVM) approach: An alternative tool to discriminate between the human adenosine A(2A) and A(3) receptor pyrazolo-triazolo-pyrimidine antagonists binding sites” (Bioorg Med Chem, 2009)

How the values were obtained:
Adenosine receptor A2a = Adenosine receptor A2a (Homo sapiens, UniProt P29274); assay: biochemical
Description: Displacement of [3H]NECA from human adenosine A2A receptor expressed in CHO cells

Adenosine receptor A2b = target: T1, Adenosine receptor A2b (Homo sapiens, UniProt P29275); assay: Antagonist activity at human adenosine A2B receptor expressed in CHO cells assessed as inhibition of NECA-induced adenylyl cyclase activity; format: functional, cell-based
T1 sequence (P29275 whole entry): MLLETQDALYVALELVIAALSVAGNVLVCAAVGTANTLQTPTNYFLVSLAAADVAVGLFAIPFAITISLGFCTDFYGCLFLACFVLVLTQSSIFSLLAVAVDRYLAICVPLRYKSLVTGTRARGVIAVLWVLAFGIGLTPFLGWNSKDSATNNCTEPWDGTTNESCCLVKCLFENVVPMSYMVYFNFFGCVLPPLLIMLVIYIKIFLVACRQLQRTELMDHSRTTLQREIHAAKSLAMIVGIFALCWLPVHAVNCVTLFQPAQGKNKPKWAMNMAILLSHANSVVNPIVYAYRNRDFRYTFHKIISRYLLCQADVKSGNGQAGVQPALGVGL

Adenosine receptor A3 = target: T2, Adenosine receptor A3 (Homo sapiens, UniProt P0DMS8); assay: Displacement of [3H]NECA from human adenosine A3 receptor expressed in CHO cells; format: cell-based
T2 sequence (P0DMS8 whole entry): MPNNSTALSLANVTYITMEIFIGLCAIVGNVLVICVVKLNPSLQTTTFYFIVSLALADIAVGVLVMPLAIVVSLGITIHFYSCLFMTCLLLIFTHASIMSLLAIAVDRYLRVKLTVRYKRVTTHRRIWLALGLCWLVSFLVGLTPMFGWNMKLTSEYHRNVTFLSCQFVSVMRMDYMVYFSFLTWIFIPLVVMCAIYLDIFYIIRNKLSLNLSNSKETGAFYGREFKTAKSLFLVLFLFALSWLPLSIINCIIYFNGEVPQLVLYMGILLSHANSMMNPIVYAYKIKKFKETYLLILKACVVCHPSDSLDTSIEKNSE

Adenosine receptor A1 = target: T3, Adenosine receptor A1 (Homo sapiens, UniProt P30542); assay: Displacement of [3H]CCPA from human adenosine A1 receptor expressed in CHO cells; format: cell-based
T3 sequence (P30542 whole entry): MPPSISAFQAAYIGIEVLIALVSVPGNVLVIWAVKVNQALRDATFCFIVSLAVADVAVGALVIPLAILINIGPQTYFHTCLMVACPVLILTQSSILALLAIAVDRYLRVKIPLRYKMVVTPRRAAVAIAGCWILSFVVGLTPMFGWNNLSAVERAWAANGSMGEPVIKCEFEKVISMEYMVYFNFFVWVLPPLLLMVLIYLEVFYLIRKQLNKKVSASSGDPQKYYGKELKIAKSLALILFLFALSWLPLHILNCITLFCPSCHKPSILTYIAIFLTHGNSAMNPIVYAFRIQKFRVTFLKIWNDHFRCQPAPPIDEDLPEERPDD

Adenosine receptor A2a, sequence (P29274 whole entry): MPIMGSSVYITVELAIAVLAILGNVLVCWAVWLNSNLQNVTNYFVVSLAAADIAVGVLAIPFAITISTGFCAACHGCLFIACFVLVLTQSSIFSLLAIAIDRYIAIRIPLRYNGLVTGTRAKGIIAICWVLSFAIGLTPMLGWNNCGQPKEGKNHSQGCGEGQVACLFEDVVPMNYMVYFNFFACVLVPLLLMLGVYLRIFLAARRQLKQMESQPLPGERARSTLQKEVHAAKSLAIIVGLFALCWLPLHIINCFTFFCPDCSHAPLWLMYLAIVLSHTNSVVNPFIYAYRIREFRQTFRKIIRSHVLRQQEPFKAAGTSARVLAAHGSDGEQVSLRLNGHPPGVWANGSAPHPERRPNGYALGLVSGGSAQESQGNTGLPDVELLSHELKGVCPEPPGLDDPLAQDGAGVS

Ki (Adenosine receptor A2a) | IC50 (Adenosine receptor A2b) | Ki (Adenosine receptor A3) | Ki (Adenosine receptor A1) | Structure (SMILES)
43.9 nM | > 3000 nM | 5.49 nM | 128 nM | O=C(Cc1ccccc1)Nc1nc2nn(CCc3ccccc3)cc2c2nc(-c3ccco3)nn12
256 nM | > 100000 nM | 410 nM | 1170 nM | O=C(Cc1ccc(-c2ccccc2)cc1)Nc1nc2nn(CCCc3ccccc3)cc2c2nc(-c3ccco3)nn12
89.9 nM | > 10000 nM | 30.5 nM | 256 nM | O=C(Cc1ccc(Cl)cc1)Nc1nc2nn(CCCc3ccccc3)cc2c2nc(-c3ccco3)nn12
18.7 nM | 1440 nM | 207 nM | 121 nM | CC(C)CCn1cc2c(nc(NC(=O)Cc3c(Cl)cccc3Cl)n3nc(-c4ccco4)nc23)n1
2.75 nM | 1220 nM | 56.5 nM | 22.6 nM | CC(C)CCn1cc2c(nc(NC(=O)Cc3ccc(Cl)cc3)n3nc(-c4ccco4)nc23)n1
15.9 nM | 15000 nM | 196 nM | 148 nM | CCn1cc2c(nc(NC(=O)Cc3cccs3)n3nc(-c4ccco4)nc23)n1
56 nM | > 10000 nM | 5.26 nM | 444 nM | Cn1cc2c(nc(NC(=O)Cc3cccs3)n3nc(-c4ccco4)nc23)n1
5.43 nM | 5480 nM | 266 nM | 48.2 nM | CC(C)CCn1cc2c(nc(NC(=O)Cc3ccc(C(F)(F)F)cc3)n3nc(-c4ccco4)nc23)n1
54.1 nM | 13000 nM | 0.97 nM | 741 nM | Cn1cc2c(nc(NC(=O)Cc3ccc(F)cc3)n3nc(-c4ccco4)nc23)n1
211 nM | > 50000 nM | 58.5 nM | 726 nM | O=C(Cc1ccc(F)cc1)Nc1nc2nn(CCCc3ccccc3)cc2c2nc(-c3ccco3)nn12
4.15 nM | 1810 nM | 99.8 nM | 70.1 nM | CCCCn1cc2c(nc(NC(=O)Cc3cccs3)n3nc(-c4ccco4)nc23)n1
45.2 nM | 6450 nM | 44.4 nM | 908 nM | Cn1cc2c(nc(NC(=O)Cc3c(Cl)cccc3Cl)n3nc(-c4ccco4)nc23)n1
23 nM | 9370 nM | 765 nM | 154 nM | CCn1cc2c(nc(NC(=O)Cc3ccsc3)n3nc(-c4ccco4)nc23)n1
77.5 nM | > 10000 nM | 14.5 nM | 190 nM | Cn1cc2c(nc(NC(=O)Cc3ccc4ccccc4c3)n3nc(-c4ccco4)nc23)n1
75.9 nM | > 10000 nM | 1.22 nM | 768 nM | Cn1cc2c(nc(NC(=O)Cc3ccc(C(F)(F)F)cc3)n3nc(-c4ccco4)nc23)n1
73.6 nM | > 50000 nM | 717 nM | 241 nM | O=C(Cc1ccc2ccccc2c1)Nc1nc2nn(CCCc3ccccc3)cc2c2nc(-c3ccco3)nn12
80.5 nM | > 10000 nM | 3.47 nM | 872 nM | Cn1cc2c(nc(NC(=O)Cc3cccc4ccccc34)n3nc(-c4ccco4)nc23)n1
326 nM | > 10000 nM | 12.6 nM | 307 nM | O=C(Nc1nc2nn(CCCc3ccccc3)cc2c2nc(-c3ccco3)nn12)C(c1ccccc1)c1ccccc1
182 nM | 50000 nM | 110 nM | 605 nM | O=C(Cc1cccc(Cl)c1)Nc1nc2nn(CCCc3ccccc3)cc2c2nc(-c3ccco3)nn12
38.7 nM | 12400 nM | 17.3 nM | 388 nM | CCCn1cc2c(nc(NC(=O)Cc3cccc4ccccc34)n3nc(-c4ccco4)nc23)n1
1.86 nM | 1390 nM | 273 nM | 13.7 nM | CC(C)CCn1cc2c(nc(NC(=O)Cc3cccc(Cl)c3)n3nc(-c4ccco4)nc23)n1
31.3 nM | 13700 nM | 1.25 nM | 461 nM | Cn1cc2c(nc(NC(=O)Cc3ccsc3)n3nc(-c4ccco4)nc23)n1
7.99 nM | 5370 nM | 95.9 nM | 160 nM | CCCn1cc2c(nc(NC(=O)Cc3ccc4ccccc4c3)n3nc(-c4ccco4)nc23)n1
39.3 nM | > 10000 nM | 223 nM | 963 nM | Cn1cc2c(nc(NC(=O)COc3ccc(Cl)cc3)n3nc(-c4ccco4)nc23)n1
3.69 nM | 5060 nM | 116 nM | 51.8 nM | CC(C)CCn1cc2c(nc(NC(=O)Cc3ccc(F)cc3)n3nc(-c4ccco4)nc23)n1
186 nM | > 10000 nM | 601 nM | 786 nM | O=C(Cc1c(Cl)cccc1Cl)Nc1nc2nn(CCCc3ccccc3)cc2c2nc(-c3ccco3)nn12

Structure (SMILES) | Ki (Adenosine receptor A2a) | IC50 (Adenosine receptor A2b) | Ki (Adenosine receptor A3) | Ki (Adenosine receptor A1)
CCCCn1cc2c(nc(NC(=O)Cc3ccsc3)n3nc(-c4ccco4)nc23)n1 | 3.13 nM | 906 nM | 189 nM | 25.5 nM
